Measured values as given in PMC6030240 (Molecules and Cells, 2018).
Like-named read-outs stand apart in the source and are kept apart here.

Legend:
[1] = target: T1, Spleen tyrosine kinase (SYK) (Homo sapiens, UniProt P43405); assay: co-crystal structure at […] Å; format: biochemical
[2] = target: T1, Spleen tyrosine kinase (SYK); assay: co-crystal structure at […] Å; format: biochemical; remark: listed apart in the source

Compound | IC50 [1] | IC50 [2]
CS(=O)(=O)c1ccc(Nc2nc(N[C@H]3CCCC[C@@H]3N)nc3cc[nH]c(=O)c23)cc1 [SKI-O-85, (1S,2S)-2-((4-((4-(methylsulfonyl)phenyl)amino)-5-oxo-5,6-dihydropyrido[4,3-d]pyrimidin-2-yl)amino)cyclohexan-1-aminium] | 211 nM | –
Cn1ncc2cc(Nc3nc(N4CCC(O)CC4)nc4cc[nH]c(=O)c34)ccc21 [SKI-G-618, 2-(4-hydroxypiperidin-1-yl)-4-((1-methyl-1H-indazol-5-yl)amino)pyrido[4,3-d]pyrimidin-5(6H)-one] | – | 17.7 nM
